Data published in ChEMBL document CHEMBL1201862, “PubChem BioAssay data set” (2004).
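The compound was tested at five concentrations on cells cultured in 96-well plates, with a 48-hour exposure period. GI50 marks 50% less growth.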 Active and inactive are the calls of the source. Rule as the data show it: active = GI50 up to about 1.1 µM and inactive = higher.

What was measured:
Assay in all cases: inhibition of tumour cell growth, NCI panel, 48 h
DLD-1 = test system: DLD-1
DMS-114 = test system: DMS-114
DMS-273 = test system: DMS-273
HOP-18 = test system: HOP-18
M19-MEL = test system: M19-MEL
XF498 = test system: XF498
KM-20L2 = test system: KM-20L2
SNB-78 = test system: SNB-78
RXF 631 = test system: RXF 631

Measured: GI50

COC1(OC)CC2C(=O)N(Cc3ccccc3)C1CC2S(=O)(=O)c1ccccc1 (stereo not given)
inactive: DLD-1 > 100 µM | DMS-114 > 100 µM | DMS-273 > 100 µM | HOP-18 > 100 µM | M19-MEL > 100 µM | XF498 33.4 µM

CCOC(=O)NN(C(=O)OCC)C(C(=O)c1ccc(Cl)cc1)=C1NCCN1
inactive: DLD-1 > 100 µM | DMS-114 > 100 µM | DMS-273 > 100 µM | HOP-18 > 100 µM | KM-20L2 > 100 µM | M19-MEL > 100 µM | SNB-78 > 100 µM | XF498 78.9 µM

Cn1cc(NC(=O)c2cc(NC(=O)CCCCCCCCC(=O)Nc3cc(C(=O)Nc4cc(C(=O)NCCC(N)N)n(C)c4)n(C)c3)cn2C)cc1C(=O)NCCC(=N)N
inactive: DLD-1 25.5 µM | DMS-273 17.1 µM | HOP-18 25.9 µM | KM-20L2 19.7 µM | M19-MEL 16.6 µM | RXF 631 26.9 µM | SNB-78 34.6 µM | XF498 28.6 µM

CCC12C=CCN3CCC4(C(=C(C(=O)OC)C1)Nc1ccccc14)[C@H]32 (stereo not given in full)
inactive: DLD-1 40.4 µM | DMS-114 19.2 µM | DMS-273 17.9 µM | HOP-18 26.5 µM | KM-20L2 19.8 µM | M19-MEL 31.3 µM

COc1cccc2c1C(=O)c1c(O)c3c(c(O)c1C2=O)C[C@@](O)(C(C)=O)C[C@@H]3OC1CC(N(Cc2ccccc2)Cc2ccccc2)C(O)C(C)O1 (stereo not given in full)
inactive: DLD-1 10.1 µM | DMS-114 39.8 µM | DMS-273 3.78 µM | HOP-18 > 45.5 µM | KM-20L2 24.9 µM | M19-MEL 23.2 µM | SNB-78 2.56 µM

COc1cc(C(C#N)NNC(=O)c2ccccc2O)ccc1O (stereo not given)
inactive: DLD-1 4.22 µM | HOP-18 4.91 µM | KM-20L2 29.4 µM | M19-MEL 3.58 µM | SNB-78 3.2 µM

C/N=c1\ss/c(=N\C(=S)N(C)C)n1C
inactive: DLD-1 > 100 µM | DMS-114 > 100 µM | DMS-273 > 100 µM | HOP-18 > 100 µM | KM-20L2 > 100 µM | M19-MEL > 100 µM | SNB-78 > 100 µM | XF498 > 100 µM

CCC12C=CCN3CCC4(c5cc(C6(C(=O)OC)CCCCCc7c6[nH]c6ccccc76)c(OC)cc5N(C)C4C(O)(C(=O)OC)C1OC(C)=O)C32 (stereo not given)
inactive: DMS-114 2.38 µM | HOP-18 2.34 µM | KM-20L2 2.03 µM | M19-MEL 2.51 µM | SNB-78 2.78 µM | XF498 2.33 µM

CO[C@@]12CC(=O)/C(=C(O)\C=C\c3ccccc3)C(=O)[C@]1(OC)Cc1ccccc1O2
inactive: DLD-1 32.2 µM | DMS-114 44.8 µM | HOP-18 35.6 µM | KM-20L2 22.4 µM | M19-MEL 37.5 µM | RXF 631 30.3 µM | SNB-78 30.5 µM | XF498 43 µM

CCCCCCCCCC(=O)CC(=O)c1ccc(O)cc1O
inactive: DLD-1 28.5 µM | DMS-273 28.2 µM | HOP-18 20.1 µM | KM-20L2 38 µM

CCOc1ccc(NC2=NC(=O)C(CC(=O)Nc3ccccc3[N+](=O)[O-])S2)cc1 (stereo not given)
inactive: DLD-1 > 100 µM | DMS-114 > 100 µM | DMS-273 > 100 µM | KM-20L2 > 100 µM | M19-MEL > 100 µM | SNB-78 > 100 µM | XF498 > 100 µM

COC1=CCC=C(C[C@@H]2NCCc3cc(OC)c(OC)cc32)C1
inactive: DLD-1 > 100 µM | DMS-273 > 100 µM | KM-20L2 > 100 µM | M19-MEL > 100 µM | SNB-78 > 100 µM | XF498 > 100 µM

CCNC1C2(CCCCC2)NC(=O)C12CCCCC2 (stereo not given)
inactive: DLD-1 > 100 µM | DMS-114 > 100 µM | DMS-273 > 100 µM | KM-20L2 > 100 µM | M19-MEL > 100 µM | SNB-78 > 100 µM | XF498 > 100 µM

Nc1nc(N)c(-c2ccccc2)c(CCC(=O)Nc2ccc(Cl)cc2)n1
inactive: DLD-1 > 100 µM | DMS-273 > 100 µM | HOP-18 > 100 µM | KM-20L2 > 100 µM | M19-MEL > 100 µM | SNB-78 > 100 µM

Cc1cc(C)n(-c2ccnc3cc(Cl)ccc23)n1
inactive: DLD-1 > 100 µM | DMS-114 > 100 µM | DMS-273 > 100 µM | HOP-18 > 100 µM | KM-20L2 > 100 µM | M19-MEL > 100 µM | SNB-78 > 100 µM | XF498 > 100 µM

O=C(NCCNCCO)N/N=C/c1ccccc1
inactive: DLD-1 > 100 µM | DMS-114 > 100 µM | DMS-273 > 100 µM | HOP-18 > 100 µM | SNB-78 > 100 µM | XF498 > 100 µM

O=c1cccccc1NCCNc1cccccc1=O
inactive: DLD-1 > 10 µM | DMS-114 > 100 µM | DMS-273 > 100 µM | KM-20L2 > 100 µM | M19-MEL > 100 µM | RXF 631 > 100 µM | SNB-78 > 100 µM | XF498 > 100 µM

O=C(O)C1C2CCC(O2)C1C(=O)N1CCCCC1 (stereo not given)
inactive: DLD-1 15.6 µM | DMS-114 2 µM | DMS-273 10.6 µM | HOP-18 12.9 µM | KM-20L2 2.65 µM | M19-MEL 9.1 µM | RXF 631 17.4 µM | SNB-78 16.7 µM

CCOC(=O)NC(=O)c1cn(C2OC(COC(=O)CCCCCCCCC(=O)OCC3OC(n4cc(C(=O)NC(=O)OCC)c(=O)[nH]c4=O)C4OC(C)(C)OC34)C3OC(C)(C)OC32)c(=O)[nH]c1=O (stereo not given)
inactive: DLD-1 > 100 µM | DMS-114 93.1 µM | DMS-273 60.1 µM | HOP-18 > 100 µM | KM-20L2 67.6 µM | M19-MEL 26.9 µM | RXF 631 > 100 µM | SNB-78 > 100 µM | XF498 67.1 µM

O=[As](O)(O)c1cc(/N=N/c2ccc(-c3ccc(/N=N/c4cc([As](=O)(O)O)c(O)cc4O)cc3)cc2)c(O)cc1O
inactive: DLD-1 > 43 µM | DMS-114 > 80.4 µM | DMS-273 > 100 µM | HOP-18 > 100 µM | KM-20L2 > 100 µM | M19-MEL > 100 µM | RXF 631 > 100 µM | SNB-78 > 100 µM

Cc1c(O)c(O)cc[n+]1C1OC(CO)C(O)C1O (stereo not given)
inactive: DLD-1 > 100 µM | DMS-273 > 100 µM | HOP-18 > 100 µM | KM-20L2 > 100 µM | M19-MEL > 100 µM | SNB-78 > 100 µM

COc1cc2ccc3c4cc(OC)c(OC(C)C)cc4cnc3c2cc1OC
inactive: DLD-1 > 100 µM | DMS-114 > 100 µM | HOP-18 > 100 µM | KM-20L2 > 100 µM | M19-MEL > 100 µM | RXF 631 > 100 µM | SNB-78 > 100 µM

COC(=O)C1=C(C)N(NC(=O)c2cccc(Cl)c2)C(C)(O)C12CCOC2=O (stereo not given)
inactive: DMS-114 > 100 µM | DMS-273 > 100 µM | KM-20L2 > 100 µM | M19-MEL > 100 µM | RXF 631 > 100 µM | SNB-78 42.1 µM | XF498 > 100 µM

Cc1csc(=S)n1OC(=O)NC1CCCCC1
inactive: DLD-1 55.5 µM | DMS-114 12.3 µM | DMS-273 > 49.4 µM | M19-MEL 16.5 µM | SNB-78 97.7 µM | XF498 > 100 µM
